# Measurements taken from patent publication US20250162973A1, “METHODS OF SYNTHESIS AND USES OF AGRIMOL COMPOUNDS” (Versitech Limited, priority 2022, published 2025).
# Legend:
# HSP60 = HSP60 (Homo sapiens, UniProt P10809); assay: MDH refolding assay (chaperone function); type: biochemical; settings: pre-incubation of Hsp60 with AGB
# Description: The function of HSP60 is mainly for its chaperone activity. HSP60 cooperates with co-chaperonin HSP10 to perform the misfolded proteins refolding and reactivate. Mitochondrial malate dehydrogenase (MDH), one of HSP60 substrates, was examined for the inhibition of chaperone function by AGB.
# [1] = Maximum tolerated dose (MTD) determination, general toxicity and body weight; type: in vivo
# Experimental: The MTD test in this study was done in collaboration with Tianjin Institute of Pharmaceutical Research (TIPR). […] A total of 80 mice were randomly assigned into four groups (10 male and 10 female mice in each group) in this study. Four groups included 16.0 mg/kg of AGB group, 12.8 mg/kg of AGB group, vehicle control group (10% DMSO+0.8% Tween-80 in normal saline), and the blank control group (normal saline).
# Then, the body weights of surviving animals were measured on the 1st, 3rd, 7th and 14th days, respectively. At the end of experiment, the hematology, blood biochemistry, anatomical examination, and histopathology examination were performed in both vehicle control group and the MTD group (12.8 mg/kg). The data were presented as the mean±standard deviation.
# A549 xenograft = assay: Human tumor xenograft model; type: in vivo, nude mice; settings: AGB 3 mg/kg, tail intravenous injection
# [2] = test system: U2OS cells transfected with mitochondrial-RFP reporter gene; assay: Time-lapse microscopy of mitochondrial morphology; type: cell-based, human; settings: 30 hour, 4 μM AGB treatment
# Experimental: Another cluster highlighted in the ProTargetMiner analysis was related to mitochondrial translation and respiration function. Time-lapse microscopy was used to monitor the changes of mitochondrial morphology during a 30 hour, 4 μM AGB treatment using U2OS cells transfected with mitochondrial-RFP reporter gene (data not shown). AGB indeed triggers dynamic changes of mitochondria. As shown in the movie recorded using time-lapse microscopy (data not shown), about 5 hours after the start of the imaging, mitochondria changed to a thread-like, very elongated morphology. Then the threads slowly broke up. At about 10 h, the mitochondria became small dots and these dots got brighter. At the end of the movie (about 30 h treatment), some cells underwent mitochondrial outer membrane permeabilization (the abrupt loss of fluorescence in mitochondria) and died.
# [3] = test system: ER stress in NCI-H460 cells; assay: ER stress (ER tracker staining, Western Blot of markers); type: cell-based, human
# Description: The disruption of Golgi structure leads to impaired glycosylation processes, resulting in misfolded proteins which would accumulate to induce ER stress. The relationship between AGB and ER stress in cancer cells was examined. The morphology of ER was disrupted and the content was lessened using ER tracker staining (images not shown). In order to verify that NCI-H460 cells developed ER stress response when treated with AGB, the expression of two ER stress markers, Glucose-regulated protein (GRP) 78 (GRP78) and C/-EBP homologous protein (CHOP), was examined. GAPDH was used as a loading control. […] Generally, there are three sensors to initiate ER stress responses, including IRE1, PERK and ATF6. Upon the accumulation of unfolded proteins, BiP preferentially binds to the unfolded proteins, which results in the release of PERK, IRE1, and ATF6. Once released from BiP, PERK becomes activated and dimerized. Activated PERK phosphorylates eIF2α to suppress the overall […] of mRNAs.
# [4] = test system: patient-derived organoids (PDOs) from a lung cancer patient's metastatic tumor; assay: Patient-derived organoid viability (CellTiter Glo); type: cell-based, human; parameters: viability of PDO: dose or concentration left out as unconfirmed; settings: 72 h
# Experimental: FIG. 1A is a bar graph showing the IC50 values of AGB against indicated cell lines. Cells were treated with AGB at various concentrations for 48 h and processed for MTT assay. The IC50 values were half maximal inhibitory concentration that determined by the fitting curve using the equation from GraphPad Prism 8. FIG. 1B is a bar graph showing the inhibition of colony formation on NCI-H460 cells by AGB. Cells were treated with indicated concentrations of AGB for 8 h. Medium with AGB was then aspirated and cells were re-seeded into a new 12-well cell culture plate. After 14 days, cells were fixed by ethanol followed by staining using crystal violet. Colony numbers were counted and normalized to vehicle control group. Colonies with more than 50 cells were considered. **, p<0.01; ***, p<0.001. […] The numbers of formed tumorsphere were calculated and normalized to the control group of primary passage. […] FIG. 1E is a graph showing the cell viability of CSCs determined by MTT assay. The absorbance of each well was normalized to control wells and data were shown as percentage of cell viabilities. […]
# To better simulate the physiological structure and function of in situ tissue, the effect of AGB on the growth of patient-derived organoids (PDOs) isolated from a lung cancer patient's metastatic tumor was evaluated.
# [5] = 16.0 mg/kg, about 1 hour after administration
# HSP60, sequence (P10809 27-573): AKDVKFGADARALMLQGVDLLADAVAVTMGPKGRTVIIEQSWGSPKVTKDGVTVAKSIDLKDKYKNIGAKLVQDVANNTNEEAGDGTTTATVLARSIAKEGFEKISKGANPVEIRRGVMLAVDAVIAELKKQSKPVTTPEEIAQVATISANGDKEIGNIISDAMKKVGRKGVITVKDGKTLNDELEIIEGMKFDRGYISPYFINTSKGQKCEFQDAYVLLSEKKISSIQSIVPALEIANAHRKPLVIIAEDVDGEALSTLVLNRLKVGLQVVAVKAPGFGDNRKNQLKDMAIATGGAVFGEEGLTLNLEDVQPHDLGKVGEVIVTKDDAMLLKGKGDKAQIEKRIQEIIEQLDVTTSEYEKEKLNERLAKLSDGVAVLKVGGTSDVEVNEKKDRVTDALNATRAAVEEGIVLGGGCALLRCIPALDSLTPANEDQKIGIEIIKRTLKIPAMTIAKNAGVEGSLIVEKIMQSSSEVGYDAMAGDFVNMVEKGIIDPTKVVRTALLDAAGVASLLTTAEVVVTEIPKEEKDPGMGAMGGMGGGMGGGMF
smiles,measurement,setting,value
"CCCC(=O)c1c(O)c(Cc2c(O)c(Cc3c(O)c(C)c(OC)c(C(=O)CCC)c3O)c(O)c(C(=O)[C@@H](C)CC)c2O)c(O)c(C)c1OC [AGB, Agrimol B]",MDH refolding activities,HSP60,concentration-dependent inhibition
same,body weight of female mice,"[1]; 12.8 mg/kg, d 0, mean ± SD",20.52 ± 1.00 g
same,body weight of male mice,"[1]; 12.8 mg/kg, d 0, mean ± SD",21.16 ± 1.07 g
same,body weight of female mice,"[1]; 12.8 mg/kg, d 1, mean ± SD",20.60 ± 1.18 g
same,body weight of male mice,"[1]; 12.8 mg/kg, d 1, mean ± SD",21.27 ± 1.46 g
same,body weight of female mice,"[1]; 12.8 mg/kg, d 3, mean ± SD",21.14 ± 0.99 g
same,body weight of male mice,"[1]; 12.8 mg/kg, d 3, mean ± SD",21.89 ± 1.51 g
same,body weight of female mice,"[1]; 12.8 mg/kg, d 7, mean ± SD",23.68 ± 1.83 g
same,body weight of male mice,"[1]; 12.8 mg/kg, d 7, mean ± SD",25.64 ± 1.54 g
same,body weight of female mice,"[1]; 12.8 mg/kg, d 14, mean ± SD",26.38 ± 1.63 g
same,body weight of male mice,"[1]; 12.8 mg/kg, d 14, mean ± SD",31.60 ± 2.37 g
same,symptoms of toxic reactions,"[1]; 12.8 mg/kg, day of dosing and recovery period",No symptoms of toxic reactions were observed
same,animals with reduced activities,"[1]; 16.0 mg/kg, about 30 minutes after administration",13/20
same,mice appearing prone,[1]; [5],3/20
same,mice with ptosis,[1]; [5],1/20
same,body weight of female mice,"[1]; 16.0 mg/kg, d 0, mean ± SD",20.57 ± 0.90 g
same,body weight of male mice,"[1]; 16.0 mg/kg, d 0, mean ± SD",21.24 ± 0.58 g
same,body weight of female mice,"[1]; 16.0 mg/kg, d 1, mean ± SD",18.76 ± 0.89 g
same,body weight of male mice,"[1]; 16.0 mg/kg, d 1, mean ± SD",19.64 ± 1.15 g
same,body weight of female mice,"[1]; 16.0 mg/kg, d 3, mean ± SD",19.61 ± 1.50 g
same,body weight of male mice,"[1]; 16.0 mg/kg, d 3, mean ± SD",20.04 ± 1.42 g
same,body weight of female mice,"[1]; 16.0 mg/kg, d 7, mean ± SD",22.76 ± 1.26 g
same,body weight of male mice,"[1]; 16.0 mg/kg, d 7, mean ± SD",24.25 ± 1.48 g
same,body weight of female mice,"[1]; 16.0 mg/kg, d 14, mean ± SD",25.61 ± 0.87 g
same,body weight of male mice,"[1]; 16.0 mg/kg, d 14, mean ± SD",31.48 ± 1.73 g
same,MTD at 14 day,"[1]; both sexes, mouse, in vivo, iv, single i.v. injection, ICR mice",12.8 mg/kg
same,tumor growth inhibition rate,A549 xenograft,60%
same,mitochondrial morphology,[2],cells underwent a mitochondrial fission
same,phosphorylation status of eIF2α,[3]; AGB-treated NCI-H460,eIF2α was phosphorylated
same,morphology of ER,[3]; ER tracker staining,disrupted
same,expression of ER stress markers GRP78 and CHOP,"[3]; Western Blot, time-dependent",significantly increased
same,viability of PDO,"[4]; AGB, concentration dependent",Significant inhibition of viability
same,maximal viability loss,[4]; PDO,over 99%
